From patent US8916183B2, “Pesticidal compositions and processes related thereto” (priority 2012, dated 2014)
Read-outs that look alike come from different tables or passages of the source.

How the values were obtained:
[1] = system: Beet Armyworm (BAW) (Spodoptera exigua); test: Bioassay on beet armyworm (BAW), 128-well diet tray assay; format: in vivo; conditions: Spodoptera exigua, read-out: % Mortality BAW 50 μg/cm^2
Protocol: (§1) Certain molecules disclosed in this document were tested against BAW and CEW using procedures described in the following examples. In the reporting of the results, the “BAW & CEW Rating Table” was used (See Table Section).
Bioassays on BAW (Spodoptera exigua)
Bioassays on BAW were conducted using a 128-well diet tray assay. […] Trays were covered with a clear self-adhesive cover and held at 25° C., 14:10 light-dark for five to seven days. Percent mortality was recorded for the larvae in each well; activity in the eight wells was then averaged. The results are indicated in the table entitled “Table 5: Biological Results” (See Table Section).

[2] = system: Corn Earworm (CEW) (Helicoverpa zea); test: Bioassay on corn earworm (CEW), 128-well diet tray assay; format: in vivo; conditions: Helicoverpa zea, read-out: % Mortality CEW 50 μg/cm^2
Protocol: as §1
Bioassays on CEW (Helicoverpa zea)
Bioassays on CEW were conducted using a 128-well diet tray assay. […] Trays were covered with a clear self-adhesive cover and held at 25° C., 14:10 light-dark for five to seven days. Percent mortality was recorded for the larvae in each well; activity in the eight wells was then averaged. The results are indicated in the table entitled “Table 5: Biological Results” (See Table Section).

Row | SMILES | mortality at 50 µg/cm2 ([1]; beet armyworm, 50 μg/cm^2) [%] | mortality at 50 µg/cm2 ([2]; corn earworm, 50 μg/cm^2) [%] | mortality at 50 µg/cm2 [1] [%] | mortality at 50 µg/cm2 [2] [%]
1 | FC(F)(F)Oc1ccc(-n2cnc(-c3ccc(/C=N/N=C4\SCCN4c4ccccc4-c4ccccc4)cc3)n2)cc1 [Compound 144C] | 50 to 100 | 50 to 100 |  | 
2 | Cc1cccc(C)c1/N=C(/N/N=C/c1ccc(-c2ncn(-c3ccc(OC(F)(F)F)cc3)n2)cc1)SCC(=O)NCCCN(C)C(=O)OC(C)(C)C [Compound 61C] |  |  | 50 to 100 | 50 to 100
3 | COc1cc(C)c(/N=C(\N/N=C/c2ccc(-c3ncn(-c4ccc(C(F)(F)F)cc4)n3)cc2)SCOC(=O)CNC(=O)OCc2ccccc2)c(C)c1 [Compound 45C] |  |  | 50 to 100 | 50 to 100
4 | CC(C)c1ccccc1N1/C(=N/N=C/c2ccc(-c3ncn(-c4ccc(OC(F)(F)F)cc4)n3)cc2)SCC1(O)C(F)(F)F (racemic) [Compound 246C] | 50 to 100 | 50 to 100 |  | 
5 | CC1CS/C(=N\N=C\c2ccc(-c3ncn(-c4ccc(OC(F)(F)F)cc4)n3)cc2)N1c1c(F)cccc1F (centres unmarked) [Compound 159C] | 50 to 100 | 50 to 100 |  | 
6 | CC(C)(C)c1ccccc1N1C(=O)CS/C1=N\N=C\c1ccc(-c2ncn(-c3ccc(OC(F)(F)F)cc3)n2)cc1 [Compound 125C] | 50 to 100 | 50 to 100 |  | 
7 | CC1CS/C(=N\N=C\c2ccc(-c3ncn(-c4ccc(OC(F)(F)F)cc4)n3)cc2)N1c1ccccc1OC(F)F (centres unmarked) [Compound 164C] | 50 to 100 | 50 to 100 |  | 
8 | CC(C)(C)c1ccccc1N1C(=O)CCS/C1=N\N=C\c1ccc(-c2ncn(-c3ccc(OC(F)(F)F)cc3)n2)cc1 [Compound 232C] | 50 to 100 | 50 to 100 |  | 
9 | CC1S/C(=N\N=C\c2ccc(-c3ncn(-c4ccc(OC(F)(F)F)cc4)n3)cc2)N(c2c(F)cccc2Cl)C1=O (centres unmarked) [Compound 130C] | 50 to 100 | 50 to 100 |  | 
10 | CC1CCS/C(=N\N=C\c2ccc(-c3ncn(-c4ccc(OC(F)(F)F)cc4)n3)cc2)N1c1c(Cl)cccc1C(F)(F)F (centres unmarked) [Compound 217C] | 50 to 100 | 50 to 100 |  | 
11 | COc1ccc(N2/C(=N/N=C/c3ccc(-c4ncn(-c5ccc(OC(F)(F)F)cc5)n4)cc3)SCC2C)c(C)c1 (centres unmarked) [Compound 162C] | 50 to 100 | 50 to 100 |  | 
12 | CC1(O)CS/C(=N\c2c(Cl)cccc2C(F)(F)F)N1/N=C/c1ccc(-c2ncn(-c3ccc(OC(F)(F)F)cc3)n2)cc1 (centres unmarked) [Compound 241C, (Z)-2-((2-chloro-6-(trifluoromethyl)phenyl)imino)-4-methyl-3-((E)-(4-(1-(4-(trifluoromethoxy)phenyl)-1H-1,2,4-triazol-3-yl)benzylidene)amino)thiazolidin-4-ol] | 50 to 100 | 50 to 100 |  | 
13 | Fc1cccc(F)c1N1CCS/C1=N\N=C\c1ccc(-c2ncn(-c3ccc(OC(F)(F)F)cc3)n2)cc1 [Compound 148C] | 50 to 100 | 50 to 100 |  | 
14 | COc1cc(C)c(/N=C(/N/N=C/c2ccc(-c3ncn(-c4ccc(OC(F)(F)F)cc4)n3)cc2)SCC(=O)O)c(C)c1 [Compound 48C] | 50 to 100 | 50 to 100 |  | 
15 | COC(=O)C1CC(c2ccc(/C=N/N=C3\SCC(=O)N3c3c(Cl)cccc3Cl)cc2)=NN1c1ccc(OC(F)(F)F)cc1 (centres unmarked) [Compound 109C] | 50 to 100 | 50 to 100 |  | 
16 | CC1CCS/C(=N\N=C\c2ccc(-c3ncn(-c4ccc(OC(F)(F)F)cc4)n3)cc2)N1c1ccccc1OC(F)(F)F (centres unmarked) [Compound 216C] | 50 to 100 | 50 to 100 |  | 
17 | COc1cc(C)c(N2C(=O)CSC2=NN=Cc2ccc(-c3ncn(-c4ccc(OC(F)(F)F)cc4)n3)cc2)c(C)c1 (stereo in doubt) [Compound 69C, (Z)-3-(4-methoxy-2,6-dimethylphenyl)-2-((E)-(4-(1-(4-(trifluoromethoxy)phenyl)-1H-1,2,4-triazol-3-yl)benzylidene)hydrazono)thiazolidin-4-one] | 50 to 100 | 50 to 100 |  | 

Row | SMILES | mortality at 50 µg/cm2 ([1]; beet armyworm, 50 μg/cm^2) [%] | mortality at 50 µg/cm2 ([2]; corn earworm, 50 μg/cm^2) [%] | mortality at 50 µg/cm2 [1] [%] | mortality at 50 µg/cm2 [2] [%]
18 | COc1ccc(N2C(=O)CCS/C2=N\N=C\c2ccc(-c3ncn(-c4ccc(OC(F)(F)F)cc4)n3)cc2)c(C)c1 [Compound 231C] | 50 to 100 | 50 to 100 |  | 
19 | Cc1cccc(C)c1N1C(=O)CS/C1=N\N=C\c1ccc(-c2ccn(-c3ccc(OC(F)(F)F)cc3)n2)cc1 [Compound 103C] | 50 to 100 | 50 to 100 |  | 
20 | O=C1CS/C(=N\N=C\c2ccc(-c3ncn(-c4ccc(OC(F)(F)F)cc4)n3)cc2)N1c1c(Br)cccc1Br [Compound 99C] | 50 to 100 | 50 to 100 |  | 
21 | O=C1CCS/C(=N\N=C\c2ccc(-c3ncn(-c4ccc(OC(F)(F)F)cc4)n3)cc2)N1c1c(F)cccc1F [Compound 226C] | 50 to 100 | 50 to 100 |  | 
22 | CCOc1ccccc1N1C(=O)CS/C1=N\N=C\c1ccc(-c2ncn(-c3ccc(OC(F)(F)F)cc3)n2)cc1 [Compound 116C] | 50 to 100 | 50 to 100 |  | 
23 | FC(F)Oc1ccccc1N1CCS/C1=N\N=C\c1ccc(-c2ncn(-c3ccc(OC(F)(F)F)cc3)n2)cc1 [Compound 152C] | 50 to 100 | 50 to 100 |  | 
24 | Cc1ccccc1N1C(=O)CS/C1=N\N=C\c1ccc(-c2ncn(-c3ccc(OC(F)(F)F)cc3)n2)cc1 [Compound 113C] | 50 to 100 | 50 to 100 |  | 
25 | CCOC(=O)c1ccccc1N1C(=O)CS/C1=N\N=C\c1ccc(-c2ncn(-c3ccc(OC(F)(F)F)cc3)n2)cc1 [Compound 107C] | 0 | 0 |  | 
26 | O=C1CS/C(=N\N=C\c2ccc(-c3cn(-c4ccc(OC(F)(F)F)cc4)cn3)cc2)N1c1c(Cl)cccc1Cl [Compound 102C] | 50 to 100 | 50 to 100 |  | 
27 | Cc1cccc(N2/C(=N/N=C/c3ccc(-c4ncn(-c5ccc(OC(F)(F)F)cc5)n4)cc3)SCC2(C)O)c1C(C)C (centres unmarked) [Compound 252C] | 50 to 100 | 50 to 100 |  | 
28 | CC1CCS/C(=N\N=C\c2ccc(-c3ncn(-c4ccc(OC(F)(F)F)cc4)n3)cc2)N1c1ccccc1OC(F)F (centres unmarked) [Compound 221C] | 50 to 100 | 50 to 100 |  | 
29 | CCc1cccc(C)c1N1C(=O)CCS/C1=N\N=C\c1ccc(-c2ncn(-c3ccc(OC(F)(F)F)cc3)n2)cc1 [Compound 225C] | 50 to 100 | 50 to 100 |  | 
30 | CC1S/C(=N\N=C\c2ccc(-c3ncn(-c4ccc(OC(F)(F)F)cc4)n3)cc2)N(c2c(Cl)cccc2Cl)C1=O (centres unmarked) [Compound 129C] | 50 to 100 | 50 to 100 |  | 
31 | CC(C)c1ccccc1N1C(=O)CS/C1=N\N=C\c1ccc(-c2ncn(-c3ccc(C(F)(F)F)cc3)n2)cc1 [Compound 120C] | 50 to 100 | 50 to 100 |  | 
32 | CCC1CS/C(=N\N=C\c2ccc(-c3ncn(-c4ccc(OC(F)(F)F)cc4)n3)cc2)N1c1c(C)cccc1Cl (centres unmarked) [Compound 167C] | 50 to 100 | 50 to 100 |  | 
33 | Cc1cccc(C)c1N1C(=O)CCS/C1=N\N=C\c1ccc(-c2ncn(-c3ccc(OC(F)(F)F)cc3)n2)cc1 [Compound 223C] | 50 to 100 | 50 to 100 |  | 
34 | O=C1CCS/C(=N\N=C\c2ccc(-c3ncn(-c4ccc(OC(F)(F)F)cc4)n3)cc2)N1c1ccccc1OC(F)F [Compound 233C] | 50 to 100 | 50 to 100 |  | 
